In patent publication US9119821B2, “Use of methionine sulfoximine to treat acute liver failure and other diseases caused by an inflammatory cytokine response” (priority 2010, dated 2015):

Key:
MLP 29 cells = experiment: Flow cytometry of apoptosis induced by TNF-α plus actinomycin D; assay type: cell-based, mouse; details: 9 mM, one hour preincubation, then TNF-α plus actinomycin D for 10 hours
Procedure: Output of multiparametric FACS analyses. Mouse liver progenitor cells, MLP 29, are incubated for one hour with either no addition (first lane, FIG. 3C(a)), 9 mM MSO (second lane, FIG. 3C(b)), or 9 mM BSO (third lane, FIG. 3C(c)), then exposed for 10 hours to either no addition—(BAS, first column), TNF-α plus actinomycin D (second column), or actinomycin D alone (third column). Viable cells (V) are delimited by the quadrant. Apoptotic cells display mitochondrial depolarization (reduced TMRM staining) and/or expose phosphatidylserine on their surface (increased Annexin V-FITC staining). Propidium iodide-positive, i.e. dead cells (PI), are evaluated on a PI vs TMRM diagram (not shown); these cells are excluded from the reported plots, but the percentage of propidium iodide positive (i.e. dead) cells is shown in each box (PI), as is the percentage of viable cells (V);
Samples were analyzed on a FACSCalibur flow cytometer (Becton Dickinson, San Diego, Calif.). Data acquisition was performed using CellQuest software and data analysis with WinMD1 software. Each experiment was repeated at least four times.

[1] = system: CD1 mice treated with LPS/D-GalN; experiment: Survival of mice with LPS/D-GalN induced acute liver failure; assay type: in vivo, mouse; details: 890 mg/kg IP 3 hours prior to LPS/D-GalN
From the text: Six to eight week old CD1 mice are obtained from Charles River. Animals were housed in Wayne State University or University of Padova, Vallisneri Interdepartmental Complex animal quarters until the time of the experiment. Food was withdrawn the night before the day of the experiment. All experiments were approved by the Animal Investigation Committee of Wayne State University or by the Authority of the University of Padova and authorized by the Italian Ministry of Health.
Animals were divided into two groups. Group one animals consisted of both male and female mice injected with LPS and D-GalN to induce hepatic failure. Survival was monitored post LPS/D-GalN administration and the time of injection was considered to be zero hour (t=0). Group two animals consisted of mice injected with MSO three hours prior to LPS and D-GalN administration. […] […] For analysis of the effect of MSO treatment on the cell death pathway activated by the Fas ligand, mice were pre-treated with MSO as described above, and at time zero were injected with Jo2 antibody ([…]).
Animals were monitored continuously post LPS/D-GalN or Jo2 administration. […] The time of death was recorded as hours after LPS/D-GalN injection. Fisher's exact test was used to determine two-tailed p values for the statistical between the treated and untreated groups.

GGCS = target: T1, GGCS (Homo sapiens, UniProt P48506); details: known from the literature; cited from earlier work
T1 sequence (P48506 1-637): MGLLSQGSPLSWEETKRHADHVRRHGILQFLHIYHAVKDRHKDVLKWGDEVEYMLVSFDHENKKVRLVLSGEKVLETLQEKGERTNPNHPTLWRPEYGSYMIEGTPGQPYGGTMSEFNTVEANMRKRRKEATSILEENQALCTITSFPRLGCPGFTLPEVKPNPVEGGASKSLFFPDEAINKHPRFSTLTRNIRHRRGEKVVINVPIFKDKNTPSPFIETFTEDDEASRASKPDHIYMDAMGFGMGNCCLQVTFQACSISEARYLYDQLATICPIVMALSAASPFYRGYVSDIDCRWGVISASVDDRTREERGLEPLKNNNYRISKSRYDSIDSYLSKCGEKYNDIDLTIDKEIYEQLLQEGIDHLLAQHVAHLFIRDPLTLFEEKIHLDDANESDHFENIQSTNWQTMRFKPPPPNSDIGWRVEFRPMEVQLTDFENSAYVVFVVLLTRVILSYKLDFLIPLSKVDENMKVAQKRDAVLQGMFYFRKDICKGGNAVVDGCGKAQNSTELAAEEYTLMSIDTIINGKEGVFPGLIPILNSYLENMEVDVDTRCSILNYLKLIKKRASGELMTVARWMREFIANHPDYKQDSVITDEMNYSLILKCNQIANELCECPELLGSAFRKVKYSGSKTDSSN

glutamine synthetase = target: T2, glutamine synthetase (Mus musculus, UniProt P15105); experiment: Glutamine synthetase activity in liver extracts of treated mice; assay type: in vivo; details: 890 mg/kg IP 3 hours prior to LPS/D-GalN
T2 construct: liver homogenates were prepared from liver tissue excised and immediately homogenized; from tissue; host or cells: mouse liver homogenate supernatant
Procedure: Tissue and plasma were collected from male mice, which were divided into two groups. One group was injected with saline three hours prior to LPS/D-GalN injections. The second group was given MSO three hours prior to being injected with LPS/D-GalN. Control mice (t=0) were treated with MSO or saline for 3 hours and then euthanized (not exposed to LPS/D-GalN). After LPS/D-GalN injection at time zero, tissue and plasma samples were collected at one-hour time intervals from 1 to 5 hours.
To analyze enzyme activities liver homogenates were prepared from liver tissue excised and immediately homogenized in ice-cold buffer consisting of 250 mM sucrose, 10 mM Tris and 0.1 mM EGTA with protease inhibitor cocktail (Sigma #P8340). The homogenized tissue was centrifuged at 2375×g for 5 min. The tissue supernatant fraction was frozen on dry ice and stored at −80° C.
Glutamine synthetase was assayed as described by Meister, A. Glutamine synthetase from mammalian tissues. […] The reaction with the substrates glutamine and hydroxylamine was stopped using ferric chloride stop solution (0.37 M FeCl3, 0.67 M HCl, 0.20 M TCA) and the colorimetric product formed—γ-glutamyl hydroxamate—was measured at 535 nm. The absorbance values were converted to activities by comparison to a standard curve of pure glutamyl hydroxamate (a generous gift from Arthur J. Cooper, Department of Biochemistry and Molecular Biology, New York Medical College).

T2 sequence (P15105 2-373 limits assumed): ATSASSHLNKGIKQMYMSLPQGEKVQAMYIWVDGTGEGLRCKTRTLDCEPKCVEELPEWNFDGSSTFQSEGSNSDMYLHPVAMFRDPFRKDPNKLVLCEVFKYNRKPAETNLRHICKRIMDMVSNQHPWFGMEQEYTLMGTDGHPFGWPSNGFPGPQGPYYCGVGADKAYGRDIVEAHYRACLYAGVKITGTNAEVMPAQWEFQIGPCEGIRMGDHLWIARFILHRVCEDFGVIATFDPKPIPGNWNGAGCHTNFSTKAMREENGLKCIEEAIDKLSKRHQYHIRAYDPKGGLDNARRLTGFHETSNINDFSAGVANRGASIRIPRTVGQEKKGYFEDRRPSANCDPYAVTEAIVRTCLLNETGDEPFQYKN

CCCCS(=N)(=O)CCC(N)C(=O)O (centres unmarked) [BSO, buthionine sulfoximine, reference compound]
rescue of cells from apoptosis induced by TNF-α (MLP 29 cells): neither MSO nor BSO could rescue cells
effect on survival of mice treated with LPS/D-GalN [1]: no effect
survival ([1]; 3 out of 20 treated mice survived): 15%
inhibition of GGCS, effectiveness relative to MSO (GGCS): 100 times
effect on glutamine synthetase activities (glutamine synthetase): no effect
